Assay results published in PMC6646405, “A quantitative, high-throughput method identifies protein–glycan interactions via mass spectrometry” (Communications Biology, 2019).

Biological target: T1, human neuraminidase 3 (NEU3) (Homo sapiens, UniProt Q9UQ49)
T1 construct: made in house
T1 sequence (Q9UQ49 1-428): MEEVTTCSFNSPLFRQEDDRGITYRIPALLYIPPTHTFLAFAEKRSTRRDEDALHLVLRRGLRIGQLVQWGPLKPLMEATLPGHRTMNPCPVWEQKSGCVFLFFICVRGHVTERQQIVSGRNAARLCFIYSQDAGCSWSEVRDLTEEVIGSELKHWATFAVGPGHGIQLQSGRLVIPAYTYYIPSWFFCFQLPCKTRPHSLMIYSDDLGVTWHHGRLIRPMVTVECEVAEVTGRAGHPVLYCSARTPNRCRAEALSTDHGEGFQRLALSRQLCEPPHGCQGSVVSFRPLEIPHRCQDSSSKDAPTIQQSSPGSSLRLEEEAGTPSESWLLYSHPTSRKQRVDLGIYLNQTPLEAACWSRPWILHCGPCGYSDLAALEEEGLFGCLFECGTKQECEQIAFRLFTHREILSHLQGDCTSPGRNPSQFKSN
Assay: Time-resolved CUPRA enzyme kinetics, NEU3
Format: biochemical
Method: To apply CUPRA in this capacity, two or more substrates of interest are introduced, as their corresponding OS^mod, to a solution containing the desired CAZyme. Changes in substrate concentrations, as well as those of the corresponding enzyme products, are determined from the relative abundances of OS^mod-bound ^UniPproxy measured by time-resolved ESI-MS. Because of the manner in which the substrate and product concentrations are measured, the assay is insensitive to differences in their ESI-MS response factors and, consequently, independent of the nature of the chemical modification catalyzed by the enzyme. As a result, time-resolved CUPRA eliminates the need for calibration curves or internal standards, which are generally required with ESI-MS-based enzyme kinetics assays.
Two glycosyl hydrolases, human neuraminidase 2 (NEU2) and 3 (NEU3), which preferentially cleave α2-3-linked Neu5Ac residues, were used to illustrate the ease with which time-resolved CUPRA can establish substrate specificities. We incubated libraries of the Neu5Ac-containing OS^mod with NEU2 (Fig. 2d) or NEU3 (Fig. 2e) and monitored their conversion to the corresponding desialylated OS^mod products at pH 7 and 25 °C. […] All OS^mod containing terminal α2-3-linked Neu5Ac were substrates of NEU3, with initial rates that are 10–50% that of HMO03. […]

CC(=O)N[C@H]1[C@H](O[C@@H]2[C@H](O[C@]3(C(=O)O)C[C@H](O)[C@@H](NC(C)=O)[C@H]([C@H](O)[C@@H](CO)O[C@]4(C(=O)O)C[C@H](O)[C@@H](NC(C)=O)[C@H]([C@H](O)[C@H](O)CO)O4)O3)[C@@H](O)[C@H](O[C@H]3[C@H](O)[C@@H](O)[C@H](N(CCOCCOCCNC(=O)[C@H](Cc4ccccc4)NC(=O)[C@H](Cc4ccccc4)NC(=O)CCCC(=O)NCCc4ccc(S(N)(=O)=O)cc4)C(C)=O)O[C@@H]3CO)O[C@@H]2CO)O[C@H](CO)[C@H](O)[C@@H]1O [GA10, GalNAcβ1-4(Neu5Acα2-8 Neu5Acα2-3)Galβ1-4Glc-CL]
substrate specificity of NEU3 (pH 7, 25 °C): substrates for NEU3 | Relative activity NEU3 (time-resolved CUPRA, 200 mM aqueous ammonium acetate pH 7, 25 °C, relative to HMO03): 0.292
